Square brackets hold non-standard residues; d marks the D form. Peptide text beside a SMILES is read from it. * marks the point of attachment. Gly(1-amidinopiperidin-4-yl) = N=C(N)N1CCC([C@H](N)C(=O)O)CC1; Tic = O=C(O)[C@@H]1Cc2ccccc2CN1; Cha = N[C@@H](CC1CCCCC1)C(=O)O; NHPhenethyl = c1ccc(CCN*)cc1; NMe(benzyl) = CN(Cc1ccccc1)*; Nle = CCCC[C@H](N)C(=O)O
Columns and labels:
[1] = test system: T cell activation from 0401(DR4) chimeric MHCII-mice; assay: In vivo inhibition of T cell activation by co-immunisation, DR4 mice immunised with HEL; parameters: species or system mouse; % Reduction of response to PPD(HEL): concentration or dose not given beside the values; details: for % Reduction of response to HEL: DR4 mice co-immunised with HEL plus compound, mean % inhibition from the control over 3 concentrations of antigen (6.7, 20 and 60 ug); for % Reduction of response to PPD(HEL): specificity control: response to PPD in the same cell pool, HEL co-immunised mice
Description: Mouse strains DR4 and DR14 carry chimeric MHC-II transgenes that encode the N-terminal domains of the respective DR molecules (forming the peptide binding site) and the remaining (2nd extracellular domains, transmembrane and intracytoplasmic domains) of the murine class II molecule I Ed. These strains are deficient of other murine class II, and thus, all helper T cell responses are triggered by peptides presented in the respective human MHC-II binding site. As an initial in vivo test of subject inhibitors designed to bind to DR, DR-transgenic mice were co-immunized with a pre-defined dose of protein antigen and different amounts of the compound antagonist to be tested. In this set-up, both antigen and compound were emulsified together in complete Freund's adjuvant (CFA), and thus, a direct competition between the two components for presentation by DR was tested. Readout of the assay is ex vivo antigen-specific activation of T cells from regional lymph nodes explanted 9 days after co-immunization. In a typical experiment, antigen dose-response was investigated, and the curves from mice immunized with antigen were compared to those from mice co-immunized with antigen+compound. The dose response curves were generated using lymph node cells pooled at equal numbers from 2-3 mice per experimental group. The experimental system also permits assessment of inherent antigenicity of the compound antagonist. This was done by setting up a dose-response study from the same cell pool using different concentrations of the compund under investigation instead of the antigen. As a specificity control, the response to Purified Protein Derivative (PPD), the major protein component of CFA, was tested in the same cell pool.
All Gpg conataining compounds have significant immunosupressive properties in one or both of the in-vivo models. Gpg-containing compounds also show improved activity or improved specificity over the Arg-containing equivilent. Further, compounds according to Formula I show activity in this assay.
Compounds of the invention were injected as an Emulsion prepared using CFA (Bacto Adjuvant Complete H37 Ra, Difco, Order-No. 3113-60); proteins 10 mg/ml in PBS, inhibitors 5 μM in 10% DMSO. CFA, PBS, antigen, and inhibitor were placed in the barrel of a 5-ml syringe (total volume not more than 1 mL). The mixture was sonicated at an amplitude less than 40% (30-35%) for two separated 15 s periods. The emulsion should seem to be hard and not liquid at this point. A drop of emulsion placed on the surface of water should not melt. The resulting emulsion was pushed through the needle into a 1 ml syringe with a needle (Gr.18, 26G×1″), and air bubbles were removed. Mice were co-immunized with 50 μg protein and 210 nM compound antagonist in final 100 μl emulsion into the tail base. Antigen+Compound and CFA are mixed 1:1 vol/vol. The best results are obtained using DR 4 mice immunised with HEL and DR 14 mice immunized with OVA.
Mice were injected at the tail-base as follows: Holding the tail of a mouse with thumb and middle finger, the index finger was placed under the base of the mouse's tail. The needle of the syringe was inserted about 1.5 cm from the tail base (hairy end) under the skin and pushed about 1 cm into the tail. 100 μl emulsion was injected into the mouse. After 9 days, mice were killed and lymph nodes removed.
The inhibitory effect of the candidate compounds on T-cell activation was tested using T-cells and antigen-presenting cells isolated from the lymph nodes of chimeric DR4-IE transgenic mice (Taconic, USA) previously co-immunized with hen egg lysozyme plus compound, or DR14-IE transgenic mice co-immunized with ovalbumin plus compound according to standard procedures (Adorini et al., 1988, Mueller et al., 1990; Current Protocols in Immunology, Vol. 2, 7.21; Ito et al., 1996). […]

[2] = test system: T cell activation from 0404(DR14) chimeric MHCII-mice; assay: In vivo inhibition of T cell activation by co-immunisation, DR14 mice immunised with OVA; parameters: species or system mouse; % Reduction of response to PPD(OVA): concentration or dose not given beside the values; details: for % Reduction of response to OVA: DR14 mice co-immunised with OVA plus compound, mean % inhibition from the control over 3 concentrations of antigen (6.7, 20 and 60 ug); for % Reduction of response to PPD(OVA): specificity control: response to PPD in the same cell pool, OVA co-immunised mice
Procedure, shortened: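 DR4 or DR14 chimeric MHC-II transgenic mice were co-immunised at the tail base with 50 μg HEL (DR4) or OVA (DR14) plus 210 nM compound, emulsified in CFA. After 9 days, pooled lymph node cells from 2–3 mice per group were tested for T-cell proliferation across an antigen dose range, compared with antigen-only immunisation; PPD served as a specificity control.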

[3] = test system: HLA-DR1 transgenic mice, collagen induced arthritis; assay: Collagen induced arthritis (CIA) mouse model for rheumatoid arthritis; format: in vivo; details: compared to solvent as control; s.c.
Protocol: CIA is induced by immunization with type II collagen in HLA-DR1 transgenic mice as described by Rosloniec et al (J. Exp. Med. 1997; 185: 113). After disease onset, mice are treated with compounds at the maximal tolerated dose s.c. for two weeks, and the disease development compared to that in mice treated with solvent only as follows:
Disease Severity Score • 1. Erythema and mild swelling confined to the tarsals or ankle joint • 2. Erythema and mild swelling extending from the ankle to the tarsals • 3. Erythema and moderate swelling extending from the ankle to the metatarsal joints • 4. Erythema and severe swelling encompass the ankle, foot, and digits

[4] = test system: DR4 transgenic mice, EAE induced by MOG; assay: Experimental autoimmune encephalomyelitis (EAE) mouse model for multiple sclerosis; format: in vivo; details: for efficacy in the EAE mouse model for multiple sclerosis prevention: compared to solvent as control, s.c.
Protocol: EAE is induced in DR4 transgenic mice by injection of myelin oligodendrocyte glycoprotein (MOG) as described by Ito et al. (1996). After disease onset, mice are treated with compounds and studied as below:
Disease Score • 1. Tail atony • 2. Hind limb weakness • 3. Hind limb paralysis • 4. Hind limb paralysis and fore limb weakness or paralysis • 5. Moribund

| Compound | % Reduction of response to HEL [1] | % Reduction of response to PPD(HEL) [1] | % Reduction of response to OVA [2] | in-vivo immunosuppressive properties following co-immunisation with antigen as measured by T-cell proliferation ([2]; compared to the Arg-containing equivalent, antigen/mouse strain not stated in the legend) | % Reduction of response to PPD(OVA) [2] | efficacy in the CIA mouse model for rheumatoid arthritis [3] | efficacy in the EAE mouse model in terms of disease treatment, versus Arg compound ([4]; P69 at 125 nM compared to P82 at 250 nM) | efficacy in the EAE mouse model for multiple sclerosis prevention [4] |
| --- | --- | --- | --- | --- | --- | --- | --- | --- |
| CCCC[C@H](NC(=O)[C@@H]1Cc2ccccc2CN1C(=O)[C@@H](NC(=O)[C@H](CC1CCCCC1)NC(C)=O)C1CCN(C(=N)N)CC1)C(=O)NCCc1ccccc1 [Compound P69, Ac-Cha-Gpg-Tic-Nle-N(H)CH2CH2Ph] (Ac-[Cha][Gly(1-amidinopiperidin-4-yl)][Tic][Nle]-NHPhenethyl) | 59% | 2% | 65.3% | Superior in-vivo immunosuppressive properties | 9% | Efficacy | superior | Efficacy |
| CCCC[C@H](NC(=O)[C@@H]1Cc2ccccc2CN1C(=O)[C@@H](NC(=O)[C@H](CC1CCCCC1)NC(C)=O)C1CCN(C(=N)N)CC1)C(=O)N(C)Cc1ccccc1 [Compound P74, Ac-Cha-Gpg-Tic-Nle-N(Me)Bn] (Ac-[Cha][Gly(1-amidinopiperidin-4-yl)][Tic][Nle]-{NMe(benzyl)}) | 51.6% | 12.8% | 42.5% | – | 5.8% | Efficacy | – | Efficacy |

From patent US7629318B2, “Immunosuppressant compounds, methods and uses related thereto” (priority 2002, dated 2009)
